Data on one substance can be found in patent publication US20120083522A1, “MODULATION OF INFLAMMATORY RESPONSES BY FACTOR XI” (Isis Pharmaceuitcals, inc., priority 2009, published 2012).

The first data set concerns human Factor XI mRNA. As to the kind of experiment: Dose-dependent inhibition in HepG2 cells, lipofectin (Example 4). The class given is cell-based. Conditions: 9.375 nM, 16 hours. In a few lines: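 Read-out was percent inhibition of Factor XI mRNA relative to untreated controls, by qRT-PCR (RTS 2966) adjusted for RIBOGREEN-measured total RNA. Cells received antisense oligonucleotide at 9.375 to 75 nM (four levels) via lipofectin. Treatment lasted approximately 16 hours, with plating at 10,000 cells per well.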
On to “416850 (antisense TGCACAGTTTCTGGCAGGCC; 5-10-5 gapmer, wing sugar chemistry not given here, further chemistry not given here) [compound 416850]”, for which the “percent inhibition of Factor XI mRNA, relative to untreated control cells” value is recorded as 4%.

The data set is the same for the next values; noted with them: 18.75 nM, 16 hours.
Take “416850 (antisense TGCACAGTTTCTGGCAGGCC; 5-10-5 gapmer, wing sugar chemistry not given here, further chemistry not given here) [compound 416850]”: the “percent inhibition of Factor XI mRNA, relative to untreated control cells” value turned out to be 30%.

The data set is the same for the next values; noted with them: 37.5 nM, 16 hours.
“416850 (antisense TGCACAGTTTCTGGCAGGCC; 5-10-5 gapmer, wing sugar chemistry not given here, further chemistry not given here) [compound 416850]”: the “percent inhibition of Factor XI mRNA, relative to untreated control cells” value amounted to 67%.

Staying with this data set, now noted: 75 nM, 16 hours.
Regarding “416850 (antisense TGCACAGTTTCTGGCAGGCC; 5-10-5 gapmer, wing sugar chemistry not given here, further chemistry not given here) [compound 416850]”, the “percent inhibition of Factor XI mRNA, relative to untreated control cells” value is 84%.

A further data set deals with human Factor XI mRNA. As to the kind of experiment: Dose-dependent inhibition in HepG2 cells, electroporation (Example 4). The class given is cell-based. Conditions: 0.7 μM, 16 hours. An outline of the steps:
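HepG2 cells electroporated with 0.7, 2.2, 6.7 or 20 μM antisense gapmer and harvested after ~16 h. Factor XI mRNA quantified by qRT-PCR (primer probe set RTS 2966), normalised to total RNA (RIBOGREEN). Reported as percent inhibition versus untreated control cells.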
For the substance “416850 (antisense TGCACAGTTTCTGGCAGGCC; 5-10-5 gapmer, wing sugar chemistry not given here, further chemistry not given here) [compound 416850]”, the “percent inhibition of Factor XI mRNA, relative to untreated control cells” value was determined as 14%.

The data set is the same for the next values; noted with them: 2.2 μM, 16 hours.
On to “416850 (antisense TGCACAGTTTCTGGCAGGCC; 5-10-5 gapmer, wing sugar chemistry not given here, further chemistry not given here) [compound 416850]”, for which the “percent inhibition of Factor XI mRNA, relative to untreated control cells” value was determined as 25%.

Still in this data set, the particulars now being: 6.7 μM, 16 hours.
Take “416850 (antisense TGCACAGTTTCTGGCAGGCC; 5-10-5 gapmer, wing sugar chemistry not given here, further chemistry not given here) [compound 416850]”: the “percent inhibition of Factor XI mRNA, relative to untreated control cells” value was found to be 81%.

The data set is the same for the next values; noted with them: 20 μM, 16 hours.
As to “416850 (antisense TGCACAGTTTCTGGCAGGCC; 5-10-5 gapmer, wing sugar chemistry not given here, further chemistry not given here) [compound 416850]”, the “percent inhibition of Factor XI mRNA, relative to untreated control cells” value was determined as 91%.

The test system of another data set is human Factor XI mRNA. The data set is described as follows: Dose-dependent inhibition in HepG2 cells, lipofectin (Example 5). It counts as cell-based. Conditions: 2.34 nM, 16 hours. In a few lines: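 HepG2 cells (10,000/well) were lipofectin-transfected with antisense oligonucleotide at 2.34–75 nM for about 16 h. Factor XI mRNA was measured by qRT-PCR (primer-probe RTS 2966), normalised to RIBOGREEN total RNA, and expressed as percent inhibition versus untreated cells.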
Regarding “416850 (antisense TGCACAGTTTCTGGCAGGCC; 5-10-5 gapmer, wing sugar chemistry not given here, further chemistry not given here) [compound 416850]”, the “percent inhibition of human Factor XI mRNA, relative to untreated control cells” value came out at 24%.

Still in this data set, the particulars now being: 4.69 nM, 16 hours.
“416850 (antisense TGCACAGTTTCTGGCAGGCC; 5-10-5 gapmer, wing sugar chemistry not given here, further chemistry not given here) [compound 416850]”: the “percent inhibition of human Factor XI mRNA, relative to untreated control cells” value came to 31%.

The data set is the same for the next values; noted with them: 9.375 nM, 16 hours.
Consider “416850 (antisense TGCACAGTTTCTGGCAGGCC; 5-10-5 gapmer, wing sugar chemistry not given here, further chemistry not given here) [compound 416850]”, for which the “percent inhibition of human Factor XI mRNA, relative to untreated control cells” value is 49%.

The same data set, now with this note: 18.75 nM, 16 hours.
“416850 (antisense TGCACAGTTTCTGGCAGGCC; 5-10-5 gapmer, wing sugar chemistry not given here, further chemistry not given here) [compound 416850]”: the “percent inhibition of human Factor XI mRNA, relative to untreated control cells” value turned out to be 55%.

Still in this data set, the particulars now being: 37.5 nM, 16 hours.
For “416850 (antisense TGCACAGTTTCTGGCAGGCC; 5-10-5 gapmer, wing sugar chemistry not given here, further chemistry not given here) [compound 416850]”, the “percent inhibition of human Factor XI mRNA, relative to untreated control cells” value is 70%.

The data set is the same for the next values; noted with them: 75 nM, 16 hours.
In the case of “416850 (antisense TGCACAGTTTCTGGCAGGCC; 5-10-5 gapmer, wing sugar chemistry not given here, further chemistry not given here) [compound 416850]”, the “percent inhibition of human Factor XI mRNA, relative to untreated control cells” value is recorded as 77%.

Another data set deals with human Factor XI mRNA. As to the kind of experiment: Dose-dependent inhibition in HepG2 cells, electroporation (Example 5). It counts as cell-based. Conditions: 625 nM, approx. 16 h, relative to untreated control cells. An outline of the steps: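 20,000 cells per well electroporated with 625–20,000 nM antisense oligonucleotide; RNA isolated after ~16 h. Factor XI mRNA by quantitative real-time PCR (primer probe set RTS 2966), normalised to RIBOGREEN total RNA; percent inhibition relative to untreated control cells.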
For the substance “416850 (antisense TGCACAGTTTCTGGCAGGCC; 5-10-5 gapmer, wing sugar chemistry not given here, further chemistry not given here) [compound 416850]”, the “percent inhibition of human Factor XI mRNA” value was determined as 69%.

The data set is the same for the next values; noted with them: 1250 nM, approx. 16 h, relative to untreated control cells.
In the case of “416850 (antisense TGCACAGTTTCTGGCAGGCC; 5-10-5 gapmer, wing sugar chemistry not given here, further chemistry not given here) [compound 416850]”, the “percent inhibition of human Factor XI mRNA” value is recorded as 80%.

Staying with this data set, now noted: 2500 nM, approx. 16 h, relative to untreated control cells.
Consider “416850 (antisense TGCACAGTTTCTGGCAGGCC; 5-10-5 gapmer, wing sugar chemistry not given here, further chemistry not given here) [compound 416850]”, for which the “percent inhibition of human Factor XI mRNA” value is recorded as 87%.

Staying with this data set, now noted: 5000 nM, approx. 16 h, relative to untreated control cells.
As for “416850 (antisense TGCACAGTTTCTGGCAGGCC; 5-10-5 gapmer, wing sugar chemistry not given here, further chemistry not given here) [compound 416850]”, the “percent inhibition of human Factor XI mRNA” value was found to be 90%.

The data set is the same for the next values; noted with them: 10000 nM, approx. 16 h, relative to untreated control cells.
For the substance “416850 (antisense TGCACAGTTTCTGGCAGGCC; 5-10-5 gapmer, wing sugar chemistry not given here, further chemistry not given here) [compound 416850]”, the “percent inhibition of human Factor XI mRNA” value was 93%.

The same data set, now with this note: 20000 nM, approx. 16 h, relative to untreated control cells.
“416850 (antisense TGCACAGTTTCTGGCAGGCC; 5-10-5 gapmer, wing sugar chemistry not given here, further chemistry not given here) [compound 416850]”: the “percent inhibition of human Factor XI mRNA” value stood at 96%.

For the next data set, the system named is human Factor XI mRNA. The data set is described as follows: Antisense inhibition in HepG2 cells by microwalk gapmers, 8,000 nM, electroporation (Example 14). It counts as cell-based. To be noted: HepG2 cells, 8,000 nM. In a few lines:
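Percent reduction of Factor XI transcript, relative to untreated controls, by real-time PCR with RIBOGREEN normalisation. Readout taken about 24 h after electroporating HepG2 cells with 8,000 nM oligonucleotide. Gapmers are 5-10-5, 5-8-5 or 6-8-6 MOE wings, phosphorothioate backbone.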
For the substance “416850 (antisense TGCACAGTTTCTGGCAGGCC; 5-10-5 gapmer, wing sugar chemistry not given here, further chemistry not given here) [compound 416850]”, the “Percent inhibition of human Factor XI mRNA levels” value is 91%.

Test system in the next data set: not listed separately
As to the kind of experiment: Tolerability in Sprague-Dawley rats: kidney function (Example 19). Conditions: Sprague Dawley rats, after 50 mg/kg s.c. twice per week for 6 weeks. The class given is in vivo. The text has this: Urine samples were taken before the start of treatment.
Regarding “416850 (antisense TGCACAGTTTCTGGCAGGCC; 5-10-5 gapmer, wing sugar chemistry not given here, further chemistry not given here) [compound 416850]”, the “urine protein/creatinine ratio, After” value was determined as 4.0.

Staying with this data set, now noted: Sprague Dawley rats, before antisense oligonucleotide treatment.
Turning to “416850 (antisense TGCACAGTTTCTGGCAGGCC; 5-10-5 gapmer, wing sugar chemistry not given here, further chemistry not given here) [compound 416850]”, the “urine protein/creatinine ratio, Before” value stood at 1.0.
